Reference: PubChem BioAssay (NCI)
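Results reflect a 48-hour exposure of cells in 96-well plates to compound at five concentrations. Abbreviation: GI50, concentration required for 50% inhibition of growth. At the TGI there is no net growth.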

How the values were obtained:
Experiment in all cases: DTP human tumour cell line panel, 48 h
[1] = system: NCI-H226 lung
[2] = system: NCI-H460 lung
[3] = system: U251 CNS
[4] = system: OVCAR-5 ovarian
[5] = system: MDA-MB-435
[6] = system: COLO 205 colon
[7] = system: T-47D breast
[8] = system: NCI-H23 lung
[9] = system: SK-MEL-5 melanoma
[10] = system: MALME-3M melanoma
[11] = system: KM12 colon
[12] = system: TK-10 renal
[13] = system: PC-3 prostate
[14] = system: CAKI-1 renal
[15] = system: SF-539 CNS
[16] = system: A549 NSCLC
[17] = system: OVCAR-3 ovarian
[18] = system: OVCAR-4 ovarian
[19] = system: SF-268 CNS
[20] = system: EKVX NSCLC
[21] = system: A498 renal
[22] = system: NCI-H522 lung
[23] = system: RPMI-8226 leukemia
[24] = system: SF-295 CNS
[25] = system: LOX IMVI melanoma
[26] = system: RXF 393 renal
[27] = system: SK-OV-3 ovarian
[28] = system: HCT-15 colon
[29] = system: SK-MEL-28 melanoma
[30] = system: SK-MEL-2 melanoma
[31] = system: ACHN renal
[32] = system: MDA-MB-231 breast
[33] = system: HCT-116 colon
[34] = system: SNB-19 CNS
[35] = system: SN12C renal
[36] = system: IGROV1 ovarian
[37] = system: HT29 colon
[38] = system: UACC-62 melanoma
[39] = system: DU-145 prostate
[40] = system: SW-620 colon
[41] = system: HCC-2998 colon
[42] = system: 786-0 renal
[43] = system: UO-31 renal
[44] = system: UACC-257 melanoma
[45] = system: OVCAR-8 ovarian
[46] = system: HOP-92 NSCLC
[47] = system: BT-549 breast
[48] = system: MCF7 breast

Cc1ccc(S(=O)(=O)c2ccccc2)cc1
GI50 [1]: 16.6 µM | TGI [1]: > 100 µM | GI50 [2]: 3.26 µM | TGI [2]: 21.1 µM | GI50 [3]: 4.32 µM | TGI [3]: > 100 µM | GI50 [4]: 8.44 µM | TGI [4]: > 100 µM | GI50 [5]: 0.834 µM | TGI [5]: 5.06 µM | GI50 [6]: 2.71 µM | TGI [6]: 6.3 µM | GI50 [7]: 6.43 µM | TGI [7]: > 100 µM | GI50 [8]: 6.14 µM | TGI [8]: > 100 µM | GI50 [9]: 4.01 µM | TGI [9]: > 100 µM | GI50 [10]: 4.76 µM | TGI [10]: > 100 µM | GI50 [11]: 3.45 µM | TGI [11]: 68.5 µM | GI50 [12]: 5.65 µM | TGI [12]: > 100 µM | GI50 [13]: 4.24 µM | TGI [13]: > 100 µM | GI50 [14]: 2.39 µM | TGI [14]: > 100 µM | GI50 [15]: 2.55 µM | TGI [15]: 7 µM | GI50 [16]: 4.27 µM | TGI [16]: > 100 µM | GI50 [17]: 2.32 µM | TGI [17]: 5.02 µM | GI50 [18]: 22.2 µM | TGI [18]: > 100 µM | GI50 [19]: 5.82 µM | TGI [19]: > 100 µM | GI50 [20]: 3.87 µM | TGI [20]: > 100 µM | GI50 [21]: 2.8 µM | TGI [21]: 29.5 µM | GI50 [22]: 1.82 µM | TGI [22]: 4.68 µM | GI50 [23]: 3.4 µM | TGI [23]: 9.87 µM | GI50 [24]: 2.55 µM | TGI [24]: 9.03 µM | GI50 [25]: 5.05 µM | TGI [25]: > 100 µM | GI50 [26]: 2.62 µM | TGI [26]: 7.54 µM | GI50 [27]: 3.89 µM | TGI [27]: 42.2 µM | GI50 [28]: 4.91 µM | TGI [28]: > 100 µM | GI50 [29]: 5.65 µM | TGI [29]: > 100 µM | GI50 [30]: 3.01 µM | TGI [30]: > 100 µM | GI50 [31]: 11.7 µM | TGI [31]: > 100 µM | GI50 [32]: 3.63 µM | TGI [32]: > 100 µM | GI50 [33]: 3.86 µM | TGI [33]: > 100 µM | GI50 [34]: 4.73 µM | TGI [34]: > 100 µM | GI50 [35]: 5.37 µM | TGI [35]: > 100 µM | GI50 [36]: 3.97 µM | TGI [36]: > 100 µM | GI50 [37]: 2.7 µM | TGI [37]: 48.9 µM | GI50 [38]: 4.61 µM | TGI [38]: > 100 µM | GI50 [39]: 2.78 µM | TGI [39]: 7.9 µM | GI50 [40]: 3.2 µM | TGI [40]: > 100 µM | GI50 [41]: 6.82 µM | TGI [41]: 64.4 µM | GI50 [42]: 8.08 µM | TGI [42]: > 100 µM | GI50 [43]: 5.7 µM | TGI [43]: > 100 µM | GI50 [44]: 42 µM | TGI [44]: > 100 µM | GI50 [45]: 5.77 µM | TGI [45]: > 100 µM | GI50 [46]: 2.62 µM | TGI [46]: 26.2 µM | GI50 [47]: 8.05 µM | TGI [47]: > 100 µM | GI50 [48]: 4 µM | TGI [48]: > 100 µM
